This is an account of results in patent US20040087571A1, “Methods of using CCR1 antagonists as immunomodulatory agents” (Pfizer Inc, priority 2002, published 2004).

This data set is described as follows: Solubility. The data set is classed as physicochemical.

In the case of `CC(C)(O)CC[C@H](C[C@H](O)[C@H](Cc1cccs1)NC(=O)c1cnc2ccccc2n1)C(N)=O` [Example 313, Quinoxaline-2-carboxylic Acid (4(r)-carbamoyl-2(s),7-dihydroxy-7-methyl-1(s)-thiophen-2-ylmethyl-octyl)-amide], the solubility (commonly how much of the substance goes into solution per volume) was more than 250 mg/mL.
